Measured values reported in publication PMC9673804, “Design, synthesis and antitumor evaluation of novel pyrazolo[3,4-d]pyrimidines incorporating different amino acid conjugates as potential DHFR inhibitors” (Journal of Enzyme Inhibition and Medicinal Chemistry, 2022).

Key:
[1] = system: cervical carcinoma (HeLa); assay: SRB cytotoxicity assay, HeLa; assay type: cell-based; conditions: Homo sapiens, HeLa cells
[2] = system: colorectal carcinoma (HCT-116); assay: SRB cytotoxicity assay, HCT-116; assay type: cell-based; conditions: Homo sapiens, HCT-116 cells
Method: (§1) The SRB colorimetric assay was employed to assess the synthesized compounds’ cytotoxic effects on several cancer cell lines (Table 1)[11–14]. […] Furthermore, the effect of tested compounds was evaluated on the normal immortalized HPDE cell line.
(§2) Sulforhodamine B (SRB) assay was employed to assay in-vitro antitumor activities of all the synthesised compounds as describer previously. […] The cell lines were obtained from the American Type Culture Collection (Rockville, USA).

[3] = system: human hepatocellular carcinoma (HepG-2); assay: SRB cytotoxicity assay, HepG-2; assay type: cell-based; conditions: HepG2, HepG-2 cells
Method: as §1, §2

[4] = system: normal immortalised pancreatic cell line (HPDE); assay: SRB cytotoxicity assay, normal HPDE cells; assay type: cell-based; conditions: normal immortalized HPDE cell line
Method: as §1, §2

[5] = system: MCF-7 breast cancer cell line; assay: Annexin-V-FITC/PI cell apoptosis assay; assay type: cell-based, human; conditions: MCF-7, Annexin V-FITC/PI, 24 h
Method: Cell cycle analysis was done for the compound 7f against MCF-7 breast cancer cell line[11]^,[14]. Clearly, compound 7f enhanced the accumulation proportion of cells at the pre-G1 phase from 2.19 to 41.36%, and the accumulation percentages in S phase from 31.87 to 46.36%.
Flow cytometric analysis using Annexin-V-fluoresce in isothiocyanate (FITC) and propidium iodide (PI) staining kit (BD Pharmingen, San Diego, USA) was performed to assess the apoptosis. At 70% confluence, the cells were treated with compound 7f at different concentrations of (0–8 μmol/l) for 24 h. Then after trypsinization of cells, washing with PBS and centrifugation, the cells were mixed with FITC and PI in binding buffer. Becton Dickinson (Franklin Lakes, NJ, USA) was used to do the flow cytometry analysis[16]^,[17].

DHFR = assay: Western blot of DHFR expression in MCF-7; assay type: cell-based, human
Method: (§3) The effect of compound 7f on the expression of DHFR, Casp3, Bax, and Bcl-2 proteins in MCF-7 cancer cells was evaluated by western blotting as previously performed. The cancer cells treated or untreated were collected were harvested and blotted on SDS-polyacrylamide gel and separated by Cleaver electrophoresis unit (Cleaver, UK), transferred onto polyvinylidene fluoride (PVDF) membranes (Millipore, USA) for 30 min using a Semi-dry Electroblotter (Biorad, USA) at 2.5 A and 25 V for 30 min. […] After washing, the chemiluminescent Western ECL substrate (Perkin Elmer, Waltham, MA, USA) was applied to the blot and then incubated for 1 min with a mixture of equal volumes from ECL solution A and ECL solution B. The chemiluminescent signals were captured using a CCD camera-based imager (Chemi Doc imager, Biorad, USA), and the bands intensities were then measured by Image J software program. […] For colorimetric assays two-way ANOVA test followed by Bonferroni posttest were used, while for quantification expression on western blot, student-t-test was used (significance p < 0.05). […]
(§4) Sodium dodecyl sulfate polyacrylamide gel electrophoresis (SDS-PAGE) is used to separate proteins based on their size. […] The secondary antibody is typically linked to an enzyme that produces luminescence upon the reaction with its substrate. […]

Bax [6] = assay: Western blot of Bax expression in MCF-7; assay type: cell-based, human
Method: as §3, §4

Bcl-2 = assay: Western blot of Bcl-2 expression in MCF-7; assay type: cell-based, human
Method: as §3, §4

Bax [7] = assay: Bax ELISA in MCF-7; assay type: cell-based, human; conditions: ½ IC50, IC50, 2×IC50, dose dependent
Method: The apoptotic effect of compound 7f on breast cancer cell line MCF-7 were evaluated by quantification of Bax, caspase 3/7, and Bcl-2 using Bax ELISA Kit ab199080 (ABCAM, Cambridge, UK), Caspase-Glo 3/7 assay kits (Promega, Fitchburg, MA, USA), and Bcl-2 ELISA Kit ab119506 (ABCAM, Cambridge, UK), according the instructions of manufacturers[11]^,[14]. The cells were treated with compounds 7f (½ IC50, IC50, or 2 ×IC50), and the activities were shown as a percentage change from the untreated control. The experiments were performed in triplicate applying two-way ANOVA test followed by Bonferroni posttest to evaluate the significance (p < 0.05).

In the case of `N=C(N)NCCCC(NC(=O)c1ccc(Nc2ncnc3c2cnn3-c2ccccc2)cc1)C(=O)O` (centres unmarked) [Compound 7f, 5-Guanidino-2-{4-[(1-phenyl-1H-pyrazolo[3,4-d]pyrimidin-4-yl)amino]benzamido}pentanoic acid], the IC50 [1] is reported as 6.99 ± 1.11 µM, the IC50 [2] is reported as 5.48 ± 0.04 µM and the IC50 [3] is reported as 5.12 ± 0.01 µM. For the same compound, the IC50 [4] was > 50 µM, the “Apoptosis Late” value ([5]; control 0.13) was 21.31% and the “Apoptosis Early” value ([5]; control 0.66) was 14.12%. The Necrosis ([5]; control 1.4) was 5.93%, the “western blotting OD DHFR” value (DHFR; MCF7 cells, Cont.MCF7 0.808) was 0.346 OD and the “DHFR expression (western blot)” value (DHFR; MCF-7 cancer cell line) was “significantly diminished the DHFR expression”. For the same compound, the “western blotting OD Bax” value (Bax [6]; MCF7 cells, Cont.MCF7 0.152) was 0.346 OD, the “expression of Bax (western blot)” value (Bax [6]; MCF-7) was “significantly increased the expression” and the “western blotting OD Bcl2” value (Bcl-2; MCF7 cells, Cont.MCF7 0.762) was 0.501 OD. For the same compound, the “expression of Bcl-2 (western blot)” value (Bcl-2; MCF-7, compound at IC50) was “significantly down-regulated the expression of Bcl-2” and the “release of Bax protein” value (Bax [7]) was “significantly surge the release”.
